The structures appear in SMILES notation.

What all share (format): binding
In experiment [1] the target is T1, Arabidopsis TGD2, DsRed-TGD2C with deletion of the 25-mer minimal domain (DR-Δ25, residues 201-225 deleted) (Arabidopsis thaliana, UniProt Q9LTR2, DEL201-225).
T1 construct: made in house; host or cells: Escherichia coli BL21 (DE3)
Put plainly: Liposome-association assay, minimal domain deletion DR-Δ25. Here is the method:
(§1) The liposome association assay was performed as previously reported. (31). Briefly, lipids (dioleoyl-phosphatidylcholine, DOPC or dioleoyl-PA, DOPA) were incubated in TBS (50 mM Tris-HCl, pH 7; 0.1 M NaCl) at 37° C. for an hour followed by vigorous vortexing for 5 min. The liposomes were precipitated at 20,000 g and washed twice with ice-cold TBS.
(§2) Liposomes (200 μg) were mixed with purified DsRed-TGD2 fusion protein and TBS to make a final 100 μL solution. The mixture was incubated at 30° C. for 30 min and washed twice with ice-cold TBS by centrifugation at 20,000 g at 4° C. The liposome pellet mixed with sample buffer was analyzed by SDS-PAGE (28). Immuno-detection of the His-tagged protein was accomplished using the above mentioned Penta-His antibody at 1:15,000 and the anti mouse antibody at 1:75,000 dilution.
(§3) The protein band was visualized by chemiluminescent detection kit from Sigma. The autoradiography film was scanned, distinct protein bands were quantified using computer software Multi Gauge V3.0 (Fujifilm USA, Valhalla, N.Y.) and resulted data were plotted and analyzed by OriginPro8 (Origin lab corporation, Northampton, Mass.).

The target in experiment [2] is T2, Arabidopsis TGD2, DsRed-TGD2C T9 (residues 221-250, SEQ ID NO:40) (Arabidopsis thaliana, UniProt Q9LTR2).
T2 sequence (Q9LTR2 221-250): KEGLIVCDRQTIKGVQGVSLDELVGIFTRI
As to the kind of experiment: Liposome-association assay, TGD2C T9 (221-250). The method, then:
as §1, §2, §3

For experiment [3], the target named is Arabidopsis TGD2, DsRed-TGD2C D2 (Δ221-225, SEQ ID NO:46) (Arabidopsis thaliana, UniProt Q9LTR2, DEL221-225). As to the kind of experiment: Liposome-association assay, TGD2C D2 (Δ221-225). Conditions: FIG. 3C. The method, then:
as §1, §2, §3

Experiment [4] deals with T3, Arabidopsis TGD4, DsRED-TGD4-His, full-length TGD4 1-479 (SEQ ID NO: 132) (Arabidopsis thaliana, UniProt Q9M903).
T3 sequence (Q9M903 1-479): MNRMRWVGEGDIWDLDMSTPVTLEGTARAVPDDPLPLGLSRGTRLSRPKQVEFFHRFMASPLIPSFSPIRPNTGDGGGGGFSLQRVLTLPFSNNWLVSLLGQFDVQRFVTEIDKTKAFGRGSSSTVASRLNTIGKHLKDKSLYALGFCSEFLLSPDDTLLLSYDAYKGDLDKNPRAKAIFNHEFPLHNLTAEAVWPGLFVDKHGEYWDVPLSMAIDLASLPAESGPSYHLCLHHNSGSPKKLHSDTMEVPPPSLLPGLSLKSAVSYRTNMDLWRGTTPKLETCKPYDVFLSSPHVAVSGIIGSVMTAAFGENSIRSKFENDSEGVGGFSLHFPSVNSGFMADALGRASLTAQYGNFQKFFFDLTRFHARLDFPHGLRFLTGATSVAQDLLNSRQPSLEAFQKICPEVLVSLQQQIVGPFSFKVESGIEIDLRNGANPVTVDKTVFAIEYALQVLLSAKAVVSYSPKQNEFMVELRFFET
As to the kind of experiment: Protein-lipid overlay assay, DsRED-TGD4-His. Conditions: commercial phospholipid membrane, FIG. 18A. Here is the method: Protein-Lipid Overlay Assay:
The protein-lipid overlay assay was modified from (Awai et al., 2006, Lu and Benning, 2009). Phosphoinositol-4,5-bisphosphate PIP2) lipid strips were purchased from Echelon Biosciences (Salt Lake City, Utah). Lipids spotted onto membranes were purchased from Avanti Polar Lipids (Alabaster, Al.) as well as Larodan Fine Chemicals (Malmo, Sweden). Lipids (10 nmol) were suspended in 20 μl spotting buffer (250 μl chloroform, 500 μl methanol, 200 μl 50 mM HCl, 2 μl 1% (w/v) Ponseau S (Sigma, St. Louis, Mo.)) and spotted onto Amersham Hybond-C Extra membranes (GE Healthcare, Piscataway, N.J.) followed by drying for 1 hour in a fume hood. The lipid membranes were then blocked in 3% (w/v) bovine serum albumin (BSA) in TBST buffer (TBS with 0.25% (v/v) Tween 20) for 2 hours at room temperature. Purified DsRED-TGD4-His fusion proteins were added at 1 μg/ml final concentration and incubated overnight at 4° C. followed by washing 3 times in TBST. Lipid membranes were then incubated with 1:2000 diluted His antibody (Sigma) in blocking buffer for 2 hours at room temperature followed by 2 washes with TBST. The membranes were processed for immunoblotting as described below.

The target in experiment [5] is T4, Arabidopsis TGD4, DsRED-TGD4C-His (C-terminal fragment 309-479, SEQ ID NO: 131) (Arabidopsis thaliana, UniProt Q9M903).
T4 sequence (Q9M903 309-479): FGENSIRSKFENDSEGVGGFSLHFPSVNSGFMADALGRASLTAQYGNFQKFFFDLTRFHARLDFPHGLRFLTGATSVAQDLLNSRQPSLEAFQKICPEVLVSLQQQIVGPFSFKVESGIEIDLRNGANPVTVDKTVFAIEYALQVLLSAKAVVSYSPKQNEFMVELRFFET
As to the kind of experiment: Liposome association assay, DsRED-TGD4C-His. Conditions: dioleoyl-PtdOH/dioleoyl-PtdCho liposomes, 0 to 80% PtdOH, FIG. 19B. Here is the method:
Liposome Association Assay:
The liposome association assay was adapted from (Awai et al., 2006, Lu and Benning, 2009) with minor modifications. Dioleoyl-PtdCho and PtdOH with different acyl chain lengths and desaturation levels were used for making liposomes. In other liposomes 1-palmitoyl-2-(12-((7-nitro-2-1,3-benzoxadiazol-4-yl)amino)dodecanoyl)-sn-glycero-3-phosphate (NBD-PtdOH; Avanti, Alabaster, Ala.) was used. The lipids were mixed at indicated ratios to give a total lipid amount of 250 μg. The lipids were dried under a stream of nitrogen, resuspended in 0.5 ml TBS buffer with 0.2 M choline chloride and hydrated at 37° C. for 1 hour followed by vigorous vortexing for 2 minutes. The resulting multi-lamellar vesicles were centrifuged at 13,000×g for 10 minutes and then washed once with TBS buffer containing 0.2 M choline chloride. The liposomes were resuspended into 100 μl TBS buffer with 0.2 M choline chloride and incubated with 2 μg purified DsRED-TGD4-His protein and its derivatives. The protein liposome mixture was incubated on ice for 30 minutes followed by centrifugation at 13,000×g for 10 minutes and two washes with 500 μl TBS containing 0.2 M choline chloride. The resulting protein-liposome pellet was resuspended in 20 μl 2× Laemmli buffer (Laemmli, 1970) and processed by SDS-PAGE (Shapiro and Maizel, 1969).

The mark [6] stands for this setting: mixed PA/PC liposomes, FIGS. 5E and 5F.

T1 sequence (Q9LTR2 other isoform, or with tags, fused parts or gaps DEL201-225): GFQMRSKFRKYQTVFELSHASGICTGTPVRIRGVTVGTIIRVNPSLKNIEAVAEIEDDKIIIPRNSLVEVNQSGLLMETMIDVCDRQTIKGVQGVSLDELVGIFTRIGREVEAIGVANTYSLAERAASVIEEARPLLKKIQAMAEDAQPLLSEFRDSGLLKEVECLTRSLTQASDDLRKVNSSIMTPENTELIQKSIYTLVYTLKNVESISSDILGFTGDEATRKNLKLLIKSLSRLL
Arabidopsis TGD2, DsRed-TGD2C D2 (Δ221-225, SEQ ID NO:46), sequence (Q9LTR2 other isoform, or with tags, fused parts or gaps DEL221-225): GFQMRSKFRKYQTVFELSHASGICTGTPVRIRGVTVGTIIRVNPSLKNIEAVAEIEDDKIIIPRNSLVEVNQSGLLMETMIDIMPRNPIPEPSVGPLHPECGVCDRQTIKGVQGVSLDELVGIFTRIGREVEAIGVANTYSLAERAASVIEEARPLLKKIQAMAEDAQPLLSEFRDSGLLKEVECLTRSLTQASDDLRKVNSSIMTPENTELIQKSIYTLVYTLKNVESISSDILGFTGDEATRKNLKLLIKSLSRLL

For the compound `CCCCCCCC/C=C\CCCCCCCC(=O)OC[C@H](COP(=O)(O)O)OC(=O)CCCCCCC/C=C\CCCCCCCC` [PA, phosphatidic acid], the “residual PA binding activity” value in experiment [1] (PA liposomes) was “retains residual binding activity, albeit with significantly lower affinity”. In experiment [1] (setting [6]), the “Hill number, PA binding” value worked out at 7.3 and the “Kd, PA binding” value worked out at 53.47 mol %. In addition, in experiment [2], the PA binding entry is listed as “no interaction to PA was detected”. Further, the PA binding result in experiment [3] is “decreased binding activity dramatically”. The “binding to lipids on membranes” value in experiment [4] is recorded as “specifically bind”. In addition, in experiment [5], the PtdOH binding affinity result is recorded as “much lower affinity compared to the wild-type protein DsRED-TGD4-His but still bound PtdOH”.

(Values after US8629251B2, “Specific detection and quantification of phosphatidic acid using an Arabidopsis trigalactosyldiacylglycerol-4 (TGD4) protein” (Board of Trustees of Michigan State University, priority 2008, dated 2014).)
